In patent publication US9930893B2, “Inhibitors of DXP synthase and methods of use thereof” (The Johns Hopkins University, priority 2014, dated 2018):
Converted amounts (≈) assume the structure as drawn. Read-outs that look alike come from different tables or passages of the source.

How the values were obtained:
DXP synthase = molecular target: T1, DXP synthase (Escherichia coli, UniProt P77488); experiment: Inhibition of DXP formation by nitroso substrates (HPLC-based assay); format: biochemical, E. coli; details: 30 μM D-GAP, 80 μM pyruvate, 37° C.; average ± SEM
T1 construct: made in house
T1 sequence (P77488 1-620): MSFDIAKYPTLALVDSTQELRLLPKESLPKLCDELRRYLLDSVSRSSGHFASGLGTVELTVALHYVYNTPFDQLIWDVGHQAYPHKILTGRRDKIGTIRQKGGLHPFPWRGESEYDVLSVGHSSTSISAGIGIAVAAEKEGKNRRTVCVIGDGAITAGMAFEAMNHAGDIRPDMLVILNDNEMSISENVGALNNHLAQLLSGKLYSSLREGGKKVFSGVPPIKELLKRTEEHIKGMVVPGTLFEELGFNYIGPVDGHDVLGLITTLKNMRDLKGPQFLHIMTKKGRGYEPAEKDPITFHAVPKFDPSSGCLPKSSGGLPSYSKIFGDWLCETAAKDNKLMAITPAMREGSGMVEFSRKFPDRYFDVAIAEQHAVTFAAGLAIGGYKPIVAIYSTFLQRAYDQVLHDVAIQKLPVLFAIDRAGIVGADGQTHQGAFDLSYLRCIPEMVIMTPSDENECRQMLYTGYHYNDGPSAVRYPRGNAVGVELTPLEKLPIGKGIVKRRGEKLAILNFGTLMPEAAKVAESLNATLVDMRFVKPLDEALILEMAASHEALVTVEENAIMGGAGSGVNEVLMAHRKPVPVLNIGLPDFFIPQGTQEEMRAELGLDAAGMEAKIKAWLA
Procedure: Enzyme reactions were initiated by addition of 0.1 μM DXP synthase. Aliquots (150 μL) of the enzymatic mixture were removed between 0.5 and 3 minutes and quenched into ice-cold methanol (150 μL). Precipitated protein was removed by centrifugation, and the supernatant was diluted in an equal volume of water. The nitroso substrate was removed by extraction into acetonitrile (3×), using a previously described freeze-extraction technique. ^[32] […] The derivatization mixtures were analyzed by HPLC as previously described. ^[19] To determine initial reaction rates in the presence of varying inhibitor concentration, the D,L-GAP and DXP hydrazone HPLC peak areas were measured, and the product concentration was determined as a percent of total peak area and plotted against reaction time. Initial rates GraFit version 7 from Erithacus Software was utilized to generate IC50 curves.

[1] = molecular target: T2, E. coli DXP synthase (DXPS) (Escherichia coli, UniProt P77488); format: biochemical; details: 10-20 mM pyruvate, pH 8.0, 10% DMSO, 37° C., average ± SEM
T2 construct: made in house
T2 sequence (P77488 1-620): T1 sequence (P77488 1-620)
Procedure: Reaction mixtures containing 100 mM HEPES, pH 8.0, 2 mM MgCl2, 5 mM NaCl, 1 mM ThDP, 1 mg/mL BSA, 10-20 mM pyruvate, 10% DMSO, 0.5 mM 5 mM nitroso substrate were pre-incubated at 37° C. for 5 min. […] Aliquots of enzymatic mixture were removed at various time intervals and quenched into an equal volume of cold methanol. Quenched mixtures were incubated on ice for 20 minutes. Precipitated proteins were removed by centrifugation, and the supernatant was analyzed by HPLC with UV detection using the following conditions: Flow rate=3 mL/min; Solvent A: 100 mM NH4OAc, pH 4.6; Solvent B: acetonitrile; Method: 0-100% B over 10 min. New products formed were extracted from the supernatant using ethyl acetate (3×). […] Products were subsequently characterized by mass spectrometry.
Reaction mixtures containing 100 mM HEPES, pH 8.0, 2 mM MgCl2, 5 mM NaCl, 1 mM ThDP, 1 mg/mL BSA, 10-20 mM pyruvate, 10% DMSO v/v, and 10-300 μM nitroso substrate were pre-incubated at 37° C. for 5 min. […] Substrate concentration as a function of time was determined from absorbance values using Beer's Law. Initial reaction rates were determined from the linear range of the reaction progress curve, usually within 1-3 min. Data analysis to determine kcat and Km for each alternative substrate was carried out using GraFit version 7 from Erithacus Software.

porcine PDH E1 subunit = format: biochemical
Procedure: Reaction mixtures containing 100 mM HEPES, pH 8.0, 2 mM MgCl2, 5 mM NaCl, 1 mM ThDP, 1 mg/mL BSA, 10-20 mM pyruvate, 10% DMSO v/v, and 10-300 μM nitroso substrate were pre-incubated at 37° C. for 5 min. Enzymatic reactions were initiated by addition of 0.5-2 μM DXP synthase (or 0.1 units/ml PDH) and monitored spectrophotometrically by measuring the rate of disappearance of the nitroso substrate at its corresponding λmax. Substrate concentration as a function of time was determined from absorbance values using Beer's Law. Initial reaction rates were determined from the linear range of the reaction progress curve, usually within 1-3 min. Data analysis to determine kcat and Km for each alternative substrate was carried out using GraFit version 7 from Erithacus Software.

yeast TK = molecular target: T3, yeast TK (Saccharomyces cerevisiae, UniProt P23254); details: ref [26]; cited from earlier work
T3 sequence (P23254 1-680): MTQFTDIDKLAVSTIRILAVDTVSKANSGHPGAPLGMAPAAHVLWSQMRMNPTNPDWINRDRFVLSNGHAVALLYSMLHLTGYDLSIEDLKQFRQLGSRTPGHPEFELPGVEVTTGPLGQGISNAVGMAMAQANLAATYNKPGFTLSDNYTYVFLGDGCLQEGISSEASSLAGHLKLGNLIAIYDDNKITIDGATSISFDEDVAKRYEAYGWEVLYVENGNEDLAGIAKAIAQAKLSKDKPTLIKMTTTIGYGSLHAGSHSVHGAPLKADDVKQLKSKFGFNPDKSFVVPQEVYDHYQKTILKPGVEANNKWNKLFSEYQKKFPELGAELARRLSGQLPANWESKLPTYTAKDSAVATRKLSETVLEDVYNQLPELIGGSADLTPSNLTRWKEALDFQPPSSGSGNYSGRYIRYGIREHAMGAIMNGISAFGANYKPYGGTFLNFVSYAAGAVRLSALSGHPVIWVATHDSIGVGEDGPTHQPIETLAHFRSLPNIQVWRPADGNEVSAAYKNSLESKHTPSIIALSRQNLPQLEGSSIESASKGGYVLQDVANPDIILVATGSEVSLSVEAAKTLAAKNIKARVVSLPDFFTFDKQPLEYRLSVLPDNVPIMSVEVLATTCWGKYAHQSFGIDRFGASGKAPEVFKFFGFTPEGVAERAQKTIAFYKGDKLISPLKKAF

E. coli DXP synthase [2] = molecular target: T4, E. coli DXP synthase (Escherichia coli, UniProt P77488); experiment: biochemical
T4 construct: made in house
Procedure: FIG. 4A, FIG. 4B, and FIG. 4C are charts showing competitive inhibition of DXP synthase by pentylacetylphosphonate (PentAP; FIG. 4A), hexylacetylphosphonate (HexAP; FIG. 4B), and octylacetyl phosphonate (OctAP; FIG. 4C). Inhibition assays were performed as previously described^[18], [40]). […] Pyruvate concentration was varied from 12-240 μM and acetylphosphonate concentration was varied: 0 μM (∘), 10 μM (●), 25 μM (□) and 50 μM (▪). Experiments were performed in triplicate, and data were subjected to non-linear regression analysis for Ki determinations (GraphPad Prism). Representative Lineweaver-Burk plots (GraFit from Erithacus Software) are shown for PentAP (FIG. 4A), HexAP (FIG. 4B) and OctAP (FIG. 4C) to illustrate the competitive inhibition mode with respect to pyruvate.
Inhibition of DXP synthase was measured as previously described^[13], [18]. […] Acetylphosphonate concentration was varied from 0 to 250 μM. […] Experiments were performed in triplicate for BAP and in duplicate for iPrAP
In order to evaluate the inhibitory activity of BnAP against DXP synthase, a continuous spectrophotometric coupled assay was used to measure formation of DXP by monitoring IspC consumption of NADPH (340 nm). ^[2] DXP synthase reaction mixtures (previously described) including BnAP (15, 30, and 60 μM), IspC (1 μM) and NADPH (100 μM) were pre-incubated at 37° C. for 5 minutes. Initial rates were measured after the reaction was initiated by the addition of DXP synthase. Inhibition of the coupling enzyme (IspC) by BnAP was not observed up to 1.5 mM. Experiments were performed in triplicate. Double reciprocal analysis of data was carried out using GraFit version 7 from Erithacus Software.

[3] = system: wild-type K-12 E. coli (ATCC: MG1655); experiment: Antimicrobial activity against E. coli K-12 grown in CAMHB; format: cell-based
Procedure: FIG. 7A and FIG. 7B are charts showing representative growth curves are shown for BAP (FIG. 7A) and BnAP (FIG. 7B). Alkylacetylphosphonates exert dose-dependent delay in E. coli K-12 (MG 1655) growth in CAMHB. Fractional growth (measured at 16 h, blue arrow) was determined relative to the no drug control. Standardized cell cultures were exposed to increasing concentrations of acetylphosphonate, and growth was determined by measuring the OD600 for a period of 16 hours. Acetylphosphonate concentration was varied from 0-5 mM: No drug (light blue), 0.08 mM (orange), 0.16 mM (gray), 0.31 mM (yellow), 0.63 mM (blue), 1.25 mM (green), 2.5 mM (dark blue) and 5.0 mM (brown).
Thus, BnAP, PentAP, HexAP and OctAP, also shown to inhibit DXP synthase, were evaluated for antimicrobial activity against wild-type K-12 E. coli (ATCC: MG1655) grown in rich medium (CAMHB).

E. coli K-12 (BW25113) = experiment: Antimicrobial activity against E. coli K-12 grown in M9 minimal medium; format: cell-based; details: M9 minimal medium; preliminary
Text: The product of DXP synthase, DXP, lies at a metabolic branchpoint. DXP serves as precursor not only for essential isoprenoids, but also is essential to central metabolism as a precursor to both thiamin diphosphate and pyridoxal phosphate. Thus, evaluation of antimicrobial activity of DXP synthase inhibitors in the standard, rich growth medium (CAMHB) which contains rescuing metabolites, likely underestimates the antimicrobial activities of these agents. Standard in vitro culture conditions may have poor predictive value for these agents in vivo; access to most nutrients is thought to be more difficult from the host than in nutrient rich media.

[4] = molecular target: Porcine pyruvate dehydrogenase (PDH E1 subunit); details: Table 5, value marked with reference superscript; cited from earlier work
[5] = molecular target: T5, Porcine pyruvate dehydrogenase (PDH E1 subunit) (Sus scrofa, UniProt P29804); details: Table 5, value marked with reference superscript (previously reported); cited from earlier work
T5 construct: Ki^PDH; μM); Ki^PDH
T5 sequence (P29804 1-390): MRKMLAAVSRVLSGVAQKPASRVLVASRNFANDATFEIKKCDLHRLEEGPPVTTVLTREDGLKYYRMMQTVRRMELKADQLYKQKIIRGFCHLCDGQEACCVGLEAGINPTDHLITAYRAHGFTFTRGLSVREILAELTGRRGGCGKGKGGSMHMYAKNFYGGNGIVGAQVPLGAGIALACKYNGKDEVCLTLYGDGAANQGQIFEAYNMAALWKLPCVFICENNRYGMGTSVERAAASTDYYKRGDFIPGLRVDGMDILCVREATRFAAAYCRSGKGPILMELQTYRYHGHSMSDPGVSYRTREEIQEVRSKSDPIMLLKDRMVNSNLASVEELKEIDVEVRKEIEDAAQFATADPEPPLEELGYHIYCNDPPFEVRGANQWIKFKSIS

E. coli DXP synthase [6] = molecular target: T4, E. coli DXP synthase; details: Table 5, value marked with reference superscript (previously reported); read-out: Ki^DXPS; cited from earlier work

SMILES | IC50 (DXP synthase) | kcat ([1]; acceptor substrate turnover) | Km ([1]; acceptor substrate) | Km (porcine PDH E1 subunit; 10-20 mM pyruvate, pH 8.0, 37° C., average ± SEM) | Km^PDH/Km^DXPS (porcine PDH E1 subunit; ratio porcine PDH E1 vs E. coli DXPS) | substrate usage by yeast TK (yeast TK) | IC50 (E. coli DXP synthase [2]; Table 4, read-out: In vitro DXP syn IC50) | antimicrobial effects against E. coli (MG1655) ([3]; FIG. 10, in words) | minimum inhibitory concentration (MIC90) ([3]; rich medium (CAMHB), 16 h) | MIC (E. coli K-12 (BW25113)) | Ki^PDH/Ki^DXPS [4] | Ki [5] | Ki (E. coli DXP synthase [6]) | IC50 (E. coli DXP synthase [2]; pyruvate 95 μM, D-GAP 56 μM, error 95% Confidence Interval, read-out: IC50 (DXP synthase))
COc1ccc(CCOP(=O)([O-])C(C)=O)cc1.[Li+] [Compound 4] | 844 ± 170 µM | 0.015 ± 0.0017 s⁻¹ | 54 ± 13 µM | 408 ± 60 µM | 7.5 | not a substrate | 194 µM | – | – | – | – | – | – | –
CCCCOP(=O)(O)C(C)=O [BAP, butylacetylphosphonate, reference compound] | – | – | – | – | – | – | – | dose-dependent inhibition | 2500 µM (≈ 450 µg/mL) | 3100 µM (≈ 558 µg/mL) | 60 | 335 ± 8 µM | 5.6 ± 0.8 µM | 24 ± 4 µM
